Experimental data taken from publication PMC5971037, “Synthesis and evaluation of antimicrobial, antitubercular and anticancer activities of 2-(1-benzoyl-1H-benzo[d]imidazol-2-ylthio)-N-substituted acetamides” (Chemistry Central Journal, 2018).
Values after ≈ are worked out from the molar mass of the structure shown. Read-outs that look alike come from different tables or passages of the source.

Key:
[1] = system: S. typhi; assay: Tube dilution MIC; assay type: cell-based; details: Salmonella enterica, 24 h, read-out: MIC S. typhi
[2] = system: B. cereus; assay: MBC by subculturing; assay type: cell-based
Description: (§1) The minimum bactericidal concentration (MBC) and minimum fungicidal concentration (MFC) of the synthesized benzimidazole derivatives was determined by subculturing 100 µl of culture from each tube that remained clear in MIC determination onto sterilized petri-plates containing fresh agar medium. The petri-plates were incubated and analyzed for microbial growth visually.

[3] = system: B. subtilis; assay: MBC by subculturing; assay type: cell-based
Description: as §1

[4] = system: E. coli; assay: MBC by subculturing; assay type: cell-based; details: Escherichia coli
Description: as §1

[5] = system: S. aureus; assay: MBC by subculturing; assay type: cell-based; details: Staphylococcus aureus
Description: as §1

[6] = system: S. typhi; assay: MBC by subculturing; assay type: cell-based; details: Salmonella enterica, read-out: MBC S. typhi
Description: as §1

[7] = system: A. niger; assay: MFC by subculturing; assay type: cell-based
Description: as §1

[8] = system: C. albicans; assay: MFC by subculturing; assay type: cell-based
Description: as §1

[9] = system: M. tuberculosis H37Rv (NCFT/TB/537); assay: Well diffusion susceptibility test (zone of inhibition); assay type: cell-based; details: Mycobacterium tuberculosis, 672 h, read-out: Diameter of zone of inhibition against H37Rv (NCFT/TB/537), wells of 8 mm, 50 µg/ml test compound, 25 µg/ml standard drug, 4 weeks, NA = no activity
[10] = system: M. tuberculosis H37Rv; assay: MIC by microplate alamar blue assay; assay type: cell-based; details: Mycobacterium tuberculosis, NA = no activity, read-out: MIC against M. tuberculosis H37Rv
[11] = system: M. tuberculosis H37Rv; assay: Minimum lethal concentration (MLC); assay type: cell-based; details: Mycobacterium tuberculosis, NA = no activity, read-out: MLC against M. tuberculosis H37Rv
[12] = system: MCF7 (human breast cancer) cell line; assay: Sulforhodamine-B (SRB) cytotoxicity assay; assay type: cell-based
[13] = system: HCT116 (human colorectal) cell line; assay: Sulforhodamine-B (SRB) cytotoxicity assay; assay type: cell-based
[14] = system: Gram positive as well as Gram negative bacterial species; assay: Tube dilution MIC, bacteria overall; assay type: cell-based
[15] = system: S. aureus; assay: Tube dilution MIC; details: Staphylococcus aureus, 24 h, read-out: MIC S. aureus
[16] = system: B. cereus; assay: Tube dilution MIC; details: Bacillus cereus, 24 h, read-out: MIC B. cereus
[17] = system: B. subtilis; assay: Tube dilution MIC; details: Bacillus subtilis, 24 h, read-out: MIC B. subtilis
[18] = system: E. coli; assay: Tube dilution MIC; details: Escherichia coli, 24 h, read-out: MIC E. coli
[19] = system: C. albicans; assay: microbe, parasite or virus in culture; details: Candida albicans, 48 h, read-out: MIC C. albicans
[20] = system: A. niger; assay: microbe, parasite or virus in culture; details: Aspergillus niger, 168 h, read-out: MIC A. niger
[21] = In vivo LD50, ED50 and toxic dose in mice models; details: mouse, dose that killed 50% of the mice population within the group
Description: The LD50 and ED50 were determined for the active compounds in mice models infected with Mycobacterium H37Rv (Table 4). […] Thus, ED50 of 1.34 mg/kg was considered safe for each of the compounds. It was observed that this dose was effective and safe for mice in different groups before infecting the mice models with specific TB bacteria as no mortality of any single animal was recorded.
The LD50 (lethal dose) and ED50 (optimum/effective dose) doses were determined for the active compounds in mice models infected with Mycobacterium H37Rv via ethical permission no., NCFT/EC/16/2313 assigned to Collaborative Research Group (CRG), NCFT, New Delhi, India.

[22] = biological target: mycobacterial isocitrate lyase (Mycobacterium tuberculosis, UniProt P9WKK7); assay: Mycobacterial isocitrate lyase (ICL) assay; assay type: biochemical, M. tuberculosis H37Rv; details: read-out: Percent inhibition of enzyme, M. ICL activity
mycobacterial isocitrate lyase, sequence (P9WKK7 whole entry): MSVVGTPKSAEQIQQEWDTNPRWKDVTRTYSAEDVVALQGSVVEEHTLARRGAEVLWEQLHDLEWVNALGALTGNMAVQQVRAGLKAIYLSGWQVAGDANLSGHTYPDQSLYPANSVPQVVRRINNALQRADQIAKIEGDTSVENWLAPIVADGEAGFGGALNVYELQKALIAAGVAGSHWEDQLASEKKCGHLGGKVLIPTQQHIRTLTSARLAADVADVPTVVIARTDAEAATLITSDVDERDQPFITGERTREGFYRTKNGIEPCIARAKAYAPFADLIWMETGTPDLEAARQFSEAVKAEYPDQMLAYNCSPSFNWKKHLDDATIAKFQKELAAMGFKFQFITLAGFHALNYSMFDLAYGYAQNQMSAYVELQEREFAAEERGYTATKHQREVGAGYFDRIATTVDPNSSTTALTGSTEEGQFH
Description: The compounds found potent in in vivo evaluation were assayed for inhibition of mycobacterial enzymes viz., isocitrate lyase, pantothenate synthetase and chorismate mutase.
Isocitrate lyase activity was assayed according to the protocol reported by Dixon and Kornberg (glyoxylate phenyl hydrazone formation) at 10 μM of the compounds.

[23] = Bacillus cereus; read-out: MBC B. cereus
[24] = Bacillus subtilis; read-out: MBC B. subtilis
[25] = Aspergillus niger; read-out: MFC A. niger
[26] = Candida albicans; read-out: MFC C. albicans
[27] = SRB assay, MCF7 cell line, read-out: IC50 MCF7
[28] = HCT-116, SRB assay, HCT116 cell line, read-out: IC50 HCT116
[29] = Bacillus cereus, read-out: MBC B. cereus
[30] = Bacillus subtilis, read-out: MBC B. subtilis
[31] = Aspergillus niger, read-out: MFC A. niger
[32] = Candida albicans, read-out: MFC C. albicans

Compound	MIC [1]	MBC [4]	MBC [5]	MBC [6]	zone of inhibition at 50 µg/mL [9]	MIC [10]	MBC [11]	MIC [15]	MIC [16]	MIC [17]	MIC [18]	MIC [19]	MIC [20]	MBC [2, 29]	MBC [3, 30]	MFC [7, 31]	MFC [8, 32]	LD50 [21]	inhibition at 10 µM [22]	IC50 ([12]; MCF7, read-out: IC50 MCF7)	also measured
O=C(CSc1nc2ccccc2n1C(=O)c1ccccc1)Nc1ccc(Br)cc1 [Compound 9, 2-(1-Benzoyl-1H-benzo[d]imidazol-2-ylthio)-N-(4-bromophenyl)acetamide]	27 µM (≈ 12.6 µg/mL)	> 50 µg/mL	> 50 µg/mL	50 µg/mL (≈ 107 µM)	8 mm	17.8 µg/mL (≈ 38.2 µM)	28.1 µg/mL (≈ 60.3 µM)	27 µM (≈ 12.6 µg/mL)	27 µM (≈ 12.6 µg/mL)	27 µM (≈ 12.6 µg/mL)	27 µM (≈ 12.6 µg/mL)	13 µM (≈ 6.06 µg/mL)	27 µM (≈ 12.6 µg/mL)	–	–	–	–	–	–	–	MBC [2, 23]: > 50 µg/mL; MBC [3, 24]: > 50 µg/mL; MFC [7, 25]: > 50 µg/mL; MFC [8, 26]: 50 µg/mL (≈ 107 µM); IC50 [12, 27]: > 214 µM; IC50 [13, 28]: 64.3 µM; MIC against Gram positive as well as Gram negative bacterial species [14]: 0.027 µM/ml
O=C(CSc1nc2ccccc2n1C(=O)c1ccccc1)Nc1ccc(F)cc1 [Compound 3, 2-(1-Benzoyl-1H-benzo[d]imidazol-2-ylthio)-N-(4-fluorophenyl)acetamide]	31 µM (≈ 12.6 µg/mL)	50 µg/mL (≈ 123 µM)	> 50 µg/mL	> 50 µg/mL	> 20 mm	12.5 µg/mL (≈ 30.8 µM)	25 µg/mL (≈ 61.7 µM)	31 µM (≈ 12.6 µg/mL)	31 µM (≈ 12.6 µg/mL)	31 µM (≈ 12.6 µg/mL)	31 µM (≈ 12.6 µg/mL)	15 µM (≈ 6.08 µg/mL)	31 µM (≈ 12.6 µg/mL)	> 50 µg/mL	> 50 µg/mL	> 50 µg/mL	25 µg/mL (≈ 61.7 µM)	1.87 mg/kg	52.6%	24.7 µM	IC50 ([13]; HCT-116, read-out: IC50 HCT116): 197 µM
O=C(CSc1nc2ccccc2n1C(=O)c1ccccc1)Nc1ccccc1 [Compound 1]	32 µM (≈ 12.4 µg/mL)	50 µg/mL (≈ 129 µM)	50 µg/mL (≈ 129 µM)	50 µg/mL (≈ 129 µM)	> 20 mm	12.5 µg/mL (≈ 32.3 µM)	25 µg/mL (≈ 64.5 µM)	32 µM (≈ 12.4 µg/mL)	32 µM (≈ 12.4 µg/mL)	32 µM (≈ 12.4 µg/mL)	32 µM (≈ 12.4 µg/mL)	32 µM (≈ 12.4 µg/mL)	32 µM (≈ 12.4 µg/mL)	> 50 µg/mL	> 50 µg/mL	> 50 µg/mL	50 µg/mL (≈ 129 µM)	1.83 mg/kg	62.2%	77.4 µM	IC50 ([13]; HCT-116, read-out: IC50 HCT116): > 258 µM
O=C(CSc1nc2ccccc2n1C(=O)c1ccccc1)Nc1ccccc1Br [Compound 7, 2-(1-Benzoyl-1H-benzo[d]imidazol-2-ylthio)-N-(2-bromophenyl)acetamide]	27 µM (≈ 12.6 µg/mL)	50 µg/mL (≈ 107 µM)	50 µg/mL (≈ 107 µM)	> 50 µg/mL	10 mm	15 µg/mL (≈ 32.2 µM)	28 µg/mL (≈ 60 µM)	27 µM (≈ 12.6 µg/mL)	27 µM (≈ 12.6 µg/mL)	27 µM (≈ 12.6 µg/mL)	27 µM (≈ 12.6 µg/mL)	27 µM (≈ 12.6 µg/mL)	27 µM (≈ 12.6 µg/mL)	–	–	–	–	–	–	–	MBC [2, 23]: > 50 µg/mL; MBC [3, 24]: > 50 µg/mL; MFC [7, 25]: > 50 µg/mL; MFC [8, 26]: 50 µg/mL (≈ 107 µM); IC50 [12, 27]: 55.8 µM; IC50 [13, 28]: 96.5 µM; MIC against Gram positive as well as Gram negative bacterial species [14]: 0.027 µM/ml
O=C(CSc1nc2ccccc2n1C(=O)c1ccccc1)Nc1cc(Cl)ccc1Cl [Compound 6, 2-(1-Benzoyl-1H-benzo[d]imidazol-2-ylthio)-N-(2,5-dichlorophenyl)acetamide]	27 µM (≈ 12.3 µg/mL)	> 50 µg/mL	> 50 µg/mL	25 µg/mL (≈ 54.8 µM)	> 20 mm	12.5 µg/mL (≈ 27.4 µM)	25 µg/mL (≈ 54.8 µM)	27 µM (≈ 12.3 µg/mL)	27 µM (≈ 12.3 µg/mL)	27 µM (≈ 12.3 µg/mL)	27 µM (≈ 12.3 µg/mL)	14 µM (≈ 6.39 µg/mL)	27 µM (≈ 12.3 µg/mL)	> 50 µg/mL	> 50 µg/mL	> 50 µg/mL	50 µg/mL (≈ 110 µM)	1.86 mg/kg	56.8%	89.8 µM	IC50 ([13]; HCT-116, read-out: IC50 HCT116): 83.3 µM
Cc1cccc(C)c1NC(=O)CSc1nc2ccccc2n1C(=O)c1ccccc1 [Compound 13, 2-(1-Benzoyl-1H-benzo[d]imidazol-2-ylthio)-N-(2,6-dimethylphenyl)acetamide]	30 µM (≈ 12.5 µg/mL)	50 µg/mL (≈ 120 µM)	50 µg/mL (≈ 120 µM)	> 50 µg/mL	> 20 mm	12.5 µg/mL (≈ 30.1 µM)	25 µg/mL (≈ 60.2 µM)	30 µM (≈ 12.5 µg/mL)	30 µM (≈ 12.5 µg/mL)	30 µM (≈ 12.5 µg/mL)	30 µM (≈ 12.5 µg/mL)	15 µM (≈ 6.23 µg/mL)	30 µM (≈ 12.5 µg/mL)	> 50 µg/mL	> 50 µg/mL	> 50 µg/mL	25 µg/mL (≈ 60.2 µM)	2.14 mg/kg	56.5%	135 µM	IC50 ([13]; HCT-116, read-out: IC50 HCT116): 96.3 µM
Cc1ccc(NC(=O)CSc2nc3ccccc3n2C(=O)c2ccccc2)cc1 [Compound 12, 2-(1-Benzoyl-1H-benzo[d]imidazol-2-ylthio)-N-p-tolylacetamide]	31 µM (≈ 12.4 µg/mL)	50 µg/mL (≈ 125 µM)	> 50 µg/mL	50 µg/mL (≈ 125 µM)	> 20 mm	12.5 µg/mL (≈ 31.1 µM)	25 µg/mL (≈ 62.3 µM)	31 µM (≈ 12.4 µg/mL)	31 µM (≈ 12.4 µg/mL)	31 µM (≈ 12.4 µg/mL)	31 µM (≈ 12.4 µg/mL)	16 µM (≈ 6.42 µg/mL)	31 µM (≈ 12.4 µg/mL)	> 50 µg/mL	> 50 µg/mL	> 50 µg/mL	25 µg/mL (≈ 62.3 µM)	1.85 mg/kg	43.5%	124 µM	IC50 ([13]; HCT-116, read-out: IC50 HCT116): 39.8 µM
O=C(CSc1nc2ccccc2n1C(=O)c1ccccc1)Nc1ccc(Cl)cc1 [Compound 15, 2-(1-Benzoyl-1H-benzo[d]imidazol-2-ylthio)-N-(4-chlorophenyl)acetamide]	59 µM (≈ 24.9 µg/mL)	50 µg/mL (≈ 119 µM)	50 µg/mL (≈ 119 µM)	> 50 µg/mL	> 20 mm	12.5 µg/mL (≈ 29.6 µM)	25 µg/mL (≈ 59.3 µM)	30 µM (≈ 12.7 µg/mL)	30 µM (≈ 12.7 µg/mL)	30 µM (≈ 12.7 µg/mL)	30 µM (≈ 12.7 µg/mL)	30 µM (≈ 12.7 µg/mL)	30 µM (≈ 12.7 µg/mL)	> 50 µg/mL	> 50 µg/mL	> 50 µg/mL	> 50 µg/mL	2.67 mg/kg	61.6%	95 µM	IC50 ([13]; HCT-116, read-out: IC50 HCT116): 59.4 µM
O=C(CSc1nc2ccccc2n1C(=O)c1ccccc1)Nc1ccccc1Cl [Compound 4, 2-(1-Benzoyl-1H-benzo[d]imidazol-2-ylthio)-N-(2-chlorophenyl)acetamide]	30 µM (≈ 12.7 µg/mL)	50 µg/mL (≈ 119 µM)	50 µg/mL (≈ 119 µM)	50 µg/mL (≈ 119 µM)	> 20 mm	12.5 µg/mL (≈ 29.6 µM)	25 µg/mL (≈ 59.3 µM)	30 µM (≈ 12.7 µg/mL)	30 µM (≈ 12.7 µg/mL)	30 µM (≈ 12.7 µg/mL)	30 µM (≈ 12.7 µg/mL)	15 µM (≈ 6.33 µg/mL)	30 µM (≈ 12.7 µg/mL)	> 50 µg/mL	> 50 µg/mL	> 50 µg/mL	25 µg/mL (≈ 59.3 µM)	1.96 mg/kg	48.5%	35.6 µM	IC50 ([13]; HCT-116, read-out: IC50 HCT116): 59.4 µM
